Source: ChEMBL document CHEMBL4673280, “Discovery and SAR studies of 2-alkyl-3-phenyl-2,4,5,6,7,8-hexahydropyrazolo[3,4-d]azepines as 5-HT inhibitors leading to the identification of a clinical candidate” (Bioorg Med Chem Lett, 2021)
“And” between values parts separate entries of the source, which are not always exact repeats. Equal entries are not always repeated. Blank lines part the entries; values can stand above or below the molecule they belong to. The source made the active and inactive calls. No cut-off for these calls is given here.

Assays:
[1] = molecular target: 5-hydroxytryptamine receptor 2B (Homo sapiens, UniProt P41595); assay: Displacement of [3H]-ketanserin from human 5-HT2B receptor by competitive radioligand binding assay
Sequence of 5-hydroxytryptamine receptor 2B (P41595 whole entry): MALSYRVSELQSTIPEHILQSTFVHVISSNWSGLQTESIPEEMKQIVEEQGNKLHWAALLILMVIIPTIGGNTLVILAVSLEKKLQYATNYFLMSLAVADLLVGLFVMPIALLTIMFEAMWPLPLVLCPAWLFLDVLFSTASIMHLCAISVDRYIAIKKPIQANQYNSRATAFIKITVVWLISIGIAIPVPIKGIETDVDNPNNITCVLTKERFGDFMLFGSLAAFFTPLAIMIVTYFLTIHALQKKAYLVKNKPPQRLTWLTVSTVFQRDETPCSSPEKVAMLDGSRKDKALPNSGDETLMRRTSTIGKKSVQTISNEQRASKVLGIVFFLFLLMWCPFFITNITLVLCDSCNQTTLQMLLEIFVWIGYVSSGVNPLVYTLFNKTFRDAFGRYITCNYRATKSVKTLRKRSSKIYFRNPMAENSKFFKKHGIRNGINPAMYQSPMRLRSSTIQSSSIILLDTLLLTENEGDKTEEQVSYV

[2] = molecular target: 5-hydroxytryptamine receptor 7 (Rattus norvegicus, UniProt P32305); assay: Displacement of [3H]-CT from rat 5-HT7 receptor expressed in HEK293 cells by competitive radioligand binding assay; type: cell-based
Sequence of 5-hydroxytryptamine receptor 7 (Rattus norvegicus, UniProt P32305) (P32305 whole entry): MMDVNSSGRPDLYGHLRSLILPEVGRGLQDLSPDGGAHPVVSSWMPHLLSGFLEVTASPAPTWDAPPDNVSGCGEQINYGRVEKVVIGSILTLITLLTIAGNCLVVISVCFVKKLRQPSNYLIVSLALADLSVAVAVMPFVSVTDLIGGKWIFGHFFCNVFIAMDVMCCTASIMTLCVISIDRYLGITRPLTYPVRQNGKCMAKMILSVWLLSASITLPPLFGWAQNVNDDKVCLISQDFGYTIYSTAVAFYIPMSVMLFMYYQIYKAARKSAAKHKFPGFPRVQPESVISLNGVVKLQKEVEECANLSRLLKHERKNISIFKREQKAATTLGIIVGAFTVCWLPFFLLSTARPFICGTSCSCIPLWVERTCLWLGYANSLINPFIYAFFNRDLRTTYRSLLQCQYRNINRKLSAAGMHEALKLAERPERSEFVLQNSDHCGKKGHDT

[3] = molecular target: T1, Adrenergic receptor alpha-1 (Rattus norvegicus, UniProt P15823+P23944+P43140); assay: Displacement of […] from alpha1 adrenergic receptor in rat cortex membrane incubated for 60 mins by competitive radioligand binding assay; type: cell membranes
T1 sequence (P15823 whole entry): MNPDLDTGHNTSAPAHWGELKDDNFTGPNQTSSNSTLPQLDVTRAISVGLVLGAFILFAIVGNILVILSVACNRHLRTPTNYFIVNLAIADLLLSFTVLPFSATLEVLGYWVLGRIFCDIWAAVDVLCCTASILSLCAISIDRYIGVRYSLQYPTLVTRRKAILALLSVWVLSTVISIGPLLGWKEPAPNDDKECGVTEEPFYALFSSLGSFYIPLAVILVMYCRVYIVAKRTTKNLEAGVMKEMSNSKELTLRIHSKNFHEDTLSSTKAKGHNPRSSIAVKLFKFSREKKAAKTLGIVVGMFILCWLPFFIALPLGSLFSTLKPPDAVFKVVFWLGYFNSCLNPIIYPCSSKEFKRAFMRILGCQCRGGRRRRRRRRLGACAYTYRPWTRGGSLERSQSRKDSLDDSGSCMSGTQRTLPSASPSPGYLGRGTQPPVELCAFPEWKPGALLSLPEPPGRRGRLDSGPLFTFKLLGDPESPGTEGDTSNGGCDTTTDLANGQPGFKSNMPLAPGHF
T1 sequence (P23944 whole entry): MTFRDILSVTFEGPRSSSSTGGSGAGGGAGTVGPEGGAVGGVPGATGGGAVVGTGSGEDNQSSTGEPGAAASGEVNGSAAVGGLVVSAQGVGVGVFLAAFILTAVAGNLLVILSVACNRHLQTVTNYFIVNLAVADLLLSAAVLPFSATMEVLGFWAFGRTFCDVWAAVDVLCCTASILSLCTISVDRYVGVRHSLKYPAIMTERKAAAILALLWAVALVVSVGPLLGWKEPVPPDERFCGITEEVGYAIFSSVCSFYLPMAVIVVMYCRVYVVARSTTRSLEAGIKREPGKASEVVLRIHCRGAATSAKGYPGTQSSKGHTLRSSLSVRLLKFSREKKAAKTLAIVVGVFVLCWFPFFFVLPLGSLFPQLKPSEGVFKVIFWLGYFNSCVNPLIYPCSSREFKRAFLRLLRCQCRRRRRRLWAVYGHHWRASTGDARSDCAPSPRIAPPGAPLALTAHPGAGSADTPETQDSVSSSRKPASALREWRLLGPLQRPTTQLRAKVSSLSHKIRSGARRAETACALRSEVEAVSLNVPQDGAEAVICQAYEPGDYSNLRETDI
T1 sequence (P43140 whole entry): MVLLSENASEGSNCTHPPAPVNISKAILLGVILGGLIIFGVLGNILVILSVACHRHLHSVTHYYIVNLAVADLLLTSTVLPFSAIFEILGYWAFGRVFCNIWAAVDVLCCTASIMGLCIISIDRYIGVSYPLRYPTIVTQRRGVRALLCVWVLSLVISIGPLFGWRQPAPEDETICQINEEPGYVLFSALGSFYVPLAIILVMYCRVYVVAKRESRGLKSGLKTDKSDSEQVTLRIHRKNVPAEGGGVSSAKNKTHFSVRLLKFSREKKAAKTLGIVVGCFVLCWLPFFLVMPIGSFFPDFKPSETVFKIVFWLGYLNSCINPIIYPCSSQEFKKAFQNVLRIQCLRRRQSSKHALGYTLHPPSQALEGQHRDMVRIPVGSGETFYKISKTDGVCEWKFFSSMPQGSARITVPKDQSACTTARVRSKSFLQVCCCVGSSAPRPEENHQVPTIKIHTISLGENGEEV

[4] = molecular target: T2, 5-hydroxytryptamine receptor 2A (Homo sapiens, UniProt P28223); assay: Displacement of [3H]-ketanserin from human 5-HT2A receptor by competitive radioligand binding assay
T2 sequence (P28223 whole entry): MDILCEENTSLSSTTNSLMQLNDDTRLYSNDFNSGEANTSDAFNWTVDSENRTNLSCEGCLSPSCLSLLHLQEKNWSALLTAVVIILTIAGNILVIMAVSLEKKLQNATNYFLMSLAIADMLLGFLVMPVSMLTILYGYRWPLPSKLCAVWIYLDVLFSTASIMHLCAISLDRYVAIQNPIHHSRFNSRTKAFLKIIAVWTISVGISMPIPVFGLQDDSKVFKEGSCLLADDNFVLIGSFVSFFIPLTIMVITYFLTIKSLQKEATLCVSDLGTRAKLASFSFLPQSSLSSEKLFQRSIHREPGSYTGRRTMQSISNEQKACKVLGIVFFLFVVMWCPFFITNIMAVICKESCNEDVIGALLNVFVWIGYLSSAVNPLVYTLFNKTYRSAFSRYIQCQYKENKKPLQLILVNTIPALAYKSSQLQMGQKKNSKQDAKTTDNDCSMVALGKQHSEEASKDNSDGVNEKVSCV

[5] = molecular target: T3, 5-hydroxytryptamine receptor 2C (Homo sapiens, UniProt P28335); assay: Displacement of [3H]-ketanserin from human 5-HT2C receptor by competitive radioligand binding assay
T3 sequence (P28335 whole entry): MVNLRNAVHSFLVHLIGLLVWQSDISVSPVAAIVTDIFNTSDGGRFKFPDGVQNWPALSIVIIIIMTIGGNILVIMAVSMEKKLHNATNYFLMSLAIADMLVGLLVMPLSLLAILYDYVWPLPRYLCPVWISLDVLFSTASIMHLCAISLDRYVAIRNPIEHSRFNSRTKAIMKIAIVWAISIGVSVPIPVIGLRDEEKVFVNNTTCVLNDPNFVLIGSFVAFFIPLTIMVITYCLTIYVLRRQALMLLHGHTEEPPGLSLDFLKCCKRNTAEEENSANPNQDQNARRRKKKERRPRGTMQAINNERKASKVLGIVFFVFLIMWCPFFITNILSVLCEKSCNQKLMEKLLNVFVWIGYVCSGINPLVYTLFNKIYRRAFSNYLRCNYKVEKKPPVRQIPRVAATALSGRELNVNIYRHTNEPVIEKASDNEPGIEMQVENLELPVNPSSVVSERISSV

[6] = Cmax in rat at 3 mg/kg, sc; type: ADME, organism-based; set-up: route subcutaneous, dose 3 mg/kg; details: in vivo
[7] = In vivo antagonist activity at 5-HT7 receptor in po dosed rat assessed as inhibition of 5-CT induced hypothermia compound administered 20 mins prior to 5-CT injection and measured after 1 hr; type: functional; details: 1.333 h, time 80 min
[8] = Half life in rat brain at 10 mg/kg, po; type: ADME, organism-based
Cytochrome P450 = assay: Inhibition of CYP450 (unknown origin) up to 10 uM; type: ADME, protein assay; details: human
[9] = Oral bioavailability in dog; type: ADME, organism-based, Canis lupus familiaris; details: in vivo
[10] = Tmax in rat brain at 10 mg/kg, po; type: ADME, organism-based
[11] = Tmax in rat at 3 mg/kg, sc; type: ADME, organism-based; details: in vivo
[12] = molecular target: 5-hydroxytryptamine receptor 7 (Homo sapiens, UniProt P34969); assay: Inverse agonist activity at 5-HT7 receptor (unknown origin) by cAMP functional assay
Sequence of 5-hydroxytryptamine receptor 7 (Homo sapiens, UniProt P34969) (P34969 whole entry): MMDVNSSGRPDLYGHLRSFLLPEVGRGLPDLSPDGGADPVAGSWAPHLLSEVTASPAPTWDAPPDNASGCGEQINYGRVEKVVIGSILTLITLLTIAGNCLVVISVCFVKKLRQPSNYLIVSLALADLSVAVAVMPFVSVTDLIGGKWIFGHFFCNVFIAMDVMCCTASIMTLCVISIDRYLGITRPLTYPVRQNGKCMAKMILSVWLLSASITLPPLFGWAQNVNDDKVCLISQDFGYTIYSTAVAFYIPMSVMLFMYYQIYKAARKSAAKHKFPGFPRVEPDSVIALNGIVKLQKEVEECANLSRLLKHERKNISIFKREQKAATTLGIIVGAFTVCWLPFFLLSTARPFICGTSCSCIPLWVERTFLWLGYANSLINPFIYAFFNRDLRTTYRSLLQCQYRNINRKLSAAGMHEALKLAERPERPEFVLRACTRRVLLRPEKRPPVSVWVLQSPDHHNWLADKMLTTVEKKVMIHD

[13] = Protein binding in rat plasma assessed as unbound fraction; type: ADME, cell-free
[14] = Cmax in rat plasma at 10 mg/kg, po; type: ADME, organism-based; set-up: route oral, dose 10 mg/kg
[15] = AUC in rat brain at 10 mg/kg, po; type: ADME, organism-based; set-up: dose 10 mg/kg
[16] = Cmax in dog at 10 mg/kg, po; type: ADME, organism-based, Canis lupus familiaris; set-up: route oral, dose 10 mg/kg; details: in vivo
[17] = In vivo antagonist activity at 5-HT2A receptor in po dosed mouse assessed as inhibition of DOI-induced head twitch measured after 60 mins; type: functional; details: 1 h
[18] = Oral bioavailability in mouse; type: ADME, organism-based; details: in vivo
[19] = Half life in rat at 1 mg/kg, iv; type: ADME, organism-based; details: in vivo
[20] = Cmax in rat brain at 10 mg/kg, po; type: ADME, organism-based; set-up: route oral, dose 10 mg/kg
[21] = Half life in rat at 3 mg/kg, sc; type: ADME, organism-based; details: in vivo
[22] = Cmax in rat at 3 mg/kg, po; type: ADME, organism-based; set-up: route oral, dose 3 mg/kg; details: in vivo
[23] = Efflux ratio of apparent permeability in human Caco2 cells; type: ADME, cell-based; details: Caco-2
[24] = AUC in rat plasma at 10 mg/kg, po; type: ADME, organism-based; set-up: dose 10 mg/kg
[25] = Ratio of plasma concentration that yields to require for inhibition of alpha1 adrenergic receptor-mediated mydriasis in phenylephrine-stimulated rat to MED for inhibition of 5-HT7 receptor mediated hypothermia in po dosed 5-CT-stimulated rat; type: organism-based
[26] = Half life in rat at 3 mg/kg, po; type: ADME, organism-based; details: in vivo
[27] = Half life in non-human primates at 5 mg/kg, po; type: ADME, organism-based; details: in vivo
[28] = Tmax in non-human primates at 5 mg/kg, po; type: ADME, organism-based; details: in vivo
[29] = Half life in rat plasma at 10 mg/kg, po; type: ADME, organism-based
[30] = Plasma concentration that yields to require for maximal inhibition of 5-HT7 receptor mediated hypothermia in 5-CT-stimulated rat at 0.3 mg/kg, po compound administered 20 mins prior to 5-CT injection; type: organism-based
[31] = Oral bioavailability in monkey; type: ADME, organism-based, Macaca mulatta; details: rhesus monkey, in vivo
[32] = Clearance in rat at 3 mg/kg, po; type: ADME, organism-based; details: in vivo
[33] = Metabolic stability in rat liver microsomes assessed as half life; type: ADME, Microsome
[34] = Tmax in rat plasma at 10 mg/kg, po; type: ADME, organism-based
[35] = Cmax in non-human primates at 5 mg/kg, po; type: ADME, organism-based; set-up: route oral, dose 5 mg/kg; details: in vivo
[36] = Clearance in rat at 3 mg/kg, sc; type: ADME, organism-based; details: in vivo
[37] = Ratio of drug level in rat brain to plasma at 10 mg/kg, po; type: ADME, organism-based; details: brain and plasma, read-out: BPR
[38] = AUC in rat at 1 mg/kg, iv; type: ADME, organism-based; set-up: dose 1 mg/kg; details: in vivo
[39] = Clearance in rat plasma at 10 mg/kg, po; type: ADME, organism-based
[40] = Protein binding in human plasma assessed as unbound fraction; type: ADME, cell-free
[41] = AUC in rat at 3 mg/kg, sc; type: ADME, organism-based; set-up: dose 3 mg/kg; details: in vivo
[42] = Half life in dog at 10 mg/kg, po; type: ADME, organism-based, Canis lupus familiaris; details: in vivo
[43] = Tmax in rat at 3 mg/kg, po; type: ADME, organism-based; details: in vivo
[44] = Metabolic stability in human liver microsomes assessed as half life; type: ADME, Microsome
Rattus norvegicus = assay: In vivo antagonist activity at 5-HT7 receptor in rat assessed as maximal inhibition of 5-CT induced hypothermia at 0.3 mg/kg, po compound administered 20 mins prior to 5-CT injection; type: functional, organism-based
[45] = Clearance in rat brain at 10 mg/kg, po; type: ADME, organism-based; details: in vivo
[46] = molecular target: T2, 5-hydroxytryptamine receptor 2A; assay: Antagonist activity at 5-HT2A receptor (unknown origin) by calcium mobilization assay; type: functional; details: filed as antagonist
[47] = Tmax in dog at 10 mg/kg, po; type: ADME, organism-based, Canis lupus familiaris; details: in vivo
[48] = Clearance in rat at 1 mg/kg, iv; type: ADME, organism-based; details: in vivo
[49] = Ex vivo receptor occupancy at 5-HT2A receptor in orally dosed rat frontal cortex measured after 1 hr; type: functional; details: po
[50] = AUC in rat at 3 mg/kg, po; type: ADME, organism-based; set-up: dose 3 mg/kg; details: in vivo
[51] = Oral bioavailability in rat; type: ADME, organism-based; details: in vivo
[52] = Toxicity in rat assessed as effect on body temperature at 0.03 to 1 mg/kg, po; type: organism-based; details: in vivo, dose 0.03-1 mg/kg

SMILES: CC(C)n1nc2c(c1-c1ccc(Cl)cc1)CCNCC2
Ki [1]: 1 nM
Ki [2]: 9 nM
Ki [3]: 20 nM
Ki [4]: 1 nM

SMILES: CC(C)(C)n1nc2c(c1-c1ccccc1)CCNCC2
Ki [1]: 43 nM
Ki [5]: 85 nM
Ki [4]: 19 nM

SMILES: CC(C)n1nc2c(c1-c1ccc(F)cc1)CCNCC2
Cmax [6]: 260 ng/mL and 940 nM
ED50 [7]: 0.05 mg/kg
half-life [8]: 6.3 h
Ki [1]: 19 nM
inhibition (INH) (Cytochrome P450): Not Active
bioavailability [9]: 98%
Tmax [10]: 1 h
Tmax [11]: 0.75 h
IC50 [12]: 100 nM
fraction unbound [13]: 0.2
Cmax [14]: 1080 ng/mL and 3.9 µM
AUC [15]: 89 µM·h
Cmax [16]: 2000 ng/mL
ED50 [17]: 0.3 mg/kg
bioavailability [18]: 98%
half-life [19]: 3.4 h
Cmax [20]: 1680 ng/mL and 6.1 µM
half-life [21]: 3.9 h
Cmax [22]: 190 ng/mL and 700 nM
efflux ratio [23]: 1.3
AUC [24]: 57 µM·h
selectivity ratio [25]: 30
Ki [2]: 8 nM
half-life [26]: 4.3 h
half-life [27]: 11.4 h
Tmax [28]: 3 h
half-life [29]: 6 h
concentration at 20 min [30]: 27 ng/mL
bioavailability [31]: 72%
CL/F [32]: 6.67 mL/min
Ki [3]: 170 nM
half-life [33]: > 1 h
Tmax [34]: 1 h
Cmax [35]: 300 ng/mL
CL/F [36]: 6.67 mL/min
Kp [37]: > 1
AUC [38]: 2.8 µM·h
CL/F [39]: 3.33 mL/min
fraction unbound [40]: 0.3
AUC [41]: 7.7 µM·h
half-life [42]: 10.6 h
Tmax [43]: 1.7 h
half-life [44]: > 1 h
Ki [5]: 49 nM
inhibition (Rattus norvegicus): Active
CL [45]: 0.1 L/h
pKb [46]: 8.1
Tmax [47]: 0.5 h
clearance [48]: 6.67 mL/min
ED50 [49]: 0.8 mg/kg
AUC [50]: 9.2 µM·h
Ki [4]: 8 nM
bioavailability [51]: 100%
Activity [52]: Non-Toxic

Other lines, results leading:

Ki [4]: 100 nM
SMILES: Clc1ccc(-c2nn(Cc3ccccc3)c3c2CCNCC3)cc1 [JNJ-18038683 FREE BASE]

Ki [1]: 20 nM
Ki [2]: 5000 nM
Ki [5]: 990 nM
Ki [4]: 40 nM
SMILES: CC(C)n1nc2c(c1-c1ccc(OC(F)(F)F)cc1)CCNCC2
